Data from ChEMBL document CHEMBL3588784, “Design of selective PI3Kα inhibitors starting from a promiscuous pan kinase scaffold” (Bioorg Med Chem Lett, 2015).

Columns and labels:
[1] = target: T1, Phosphatidylinositol 4,5-bisphosphate 3-kinase catalytic subunit alpha isoform (Homo sapiens, UniProt P42336); assay: Inhibition of recombinant human PI3Kalpha using PIP2/ATP as substrate preincubated for 20 mins followed by substrate addition measured after 80 mins by Kinase-Glo plus assay
[2] = target: T2, Phosphatidylinositol 4,5-bisphosphate 3-kinase catalytic subunit beta isoform (Homo sapiens, UniProt P42338); assay: Inhibition of recombinant human PI3Kbeta using PIP2/ATP as substrate preincubated for 20 mins followed by substrate addition measured after 80 mins by Kinase-Glo plus assay
[3] = target: Vascular endothelial growth factor receptor 2 (Homo sapiens, UniProt P35968); assay: Inhibition of KDR (unknown origin)
[4] = target: T1, Phosphatidylinositol 4,5-bisphosphate 3-kinase catalytic subunit alpha isoform; assay: Inhibition of PI3Kalpha in human BT474 cells assessed as inhibition of Akt phosphorylation at […] after 2 hrs by ELISA; assay type: cell-based, BT-474
[5] = target: T2, Phosphatidylinositol 4,5-bisphosphate 3-kinase catalytic subunit beta isoform; assay: Inhibition of PI3Kbeta in human MDA-MB-468 cells assessed as inhibition of Akt phosphorylation at Ser-473 after 2 hrs by ELISA; assay type: cell-based
[6] = Octanol/buffer partition co-efficient, log D of the compound at pH 7.4 after 30 mins by shake-flask method; assay type: physicochemical
[7] = target: Receptor-interacting serine/threonine-protein kinase 2 (Homo sapiens) (UniProt O43353); assay: Inhibition of RIPK2 (unknown origin) at 1 uM preincubated for 5 mins with enzyme and substrate followed by ATP addition relative to control
[8] = target: Dual specificity tyrosine-phosphorylation-regulated kinase 1A (Homo sapiens) (UniProt Q13627); assay: Inhibition of DYRK1A (unknown origin) at 1 uM preincubated for 5 mins with enzyme and substrate followed by ATP addition relative to control
[9] = target: Glycogen synthase kinase-3 beta (Homo sapiens) (UniProt P49841); assay: Inhibition of GSK-3beta (unknown origin) at 1 uM preincubated for 5 mins with enzyme and substrate followed by ATP addition relative to control
[10] = target: Phosphatidylinositol 4,5-bisphosphate 3-kinase catalytic subunit gamma isoform (Homo sapiens, UniProt P48736); assay: Inhibition of recombinant human PI3Kgamma using PIP2/ATP as substrate preincubated for 20 mins followed by substrate addition measured after 80 mins by Kinase-Glo plus assay
[11] = target: T3, Phosphatidylinositol 4,5-bisphosphate 3-kinase catalytic subunit delta isoform (Homo sapiens, UniProt O00329); assay: Inhibition of recombinant human PI3Kdelta using PIP2/ATP as substrate preincubated for 20 mins followed by substrate addition measured after 80 mins by Kinase-Glo plus assay
T3 sequence (O00329 whole entry): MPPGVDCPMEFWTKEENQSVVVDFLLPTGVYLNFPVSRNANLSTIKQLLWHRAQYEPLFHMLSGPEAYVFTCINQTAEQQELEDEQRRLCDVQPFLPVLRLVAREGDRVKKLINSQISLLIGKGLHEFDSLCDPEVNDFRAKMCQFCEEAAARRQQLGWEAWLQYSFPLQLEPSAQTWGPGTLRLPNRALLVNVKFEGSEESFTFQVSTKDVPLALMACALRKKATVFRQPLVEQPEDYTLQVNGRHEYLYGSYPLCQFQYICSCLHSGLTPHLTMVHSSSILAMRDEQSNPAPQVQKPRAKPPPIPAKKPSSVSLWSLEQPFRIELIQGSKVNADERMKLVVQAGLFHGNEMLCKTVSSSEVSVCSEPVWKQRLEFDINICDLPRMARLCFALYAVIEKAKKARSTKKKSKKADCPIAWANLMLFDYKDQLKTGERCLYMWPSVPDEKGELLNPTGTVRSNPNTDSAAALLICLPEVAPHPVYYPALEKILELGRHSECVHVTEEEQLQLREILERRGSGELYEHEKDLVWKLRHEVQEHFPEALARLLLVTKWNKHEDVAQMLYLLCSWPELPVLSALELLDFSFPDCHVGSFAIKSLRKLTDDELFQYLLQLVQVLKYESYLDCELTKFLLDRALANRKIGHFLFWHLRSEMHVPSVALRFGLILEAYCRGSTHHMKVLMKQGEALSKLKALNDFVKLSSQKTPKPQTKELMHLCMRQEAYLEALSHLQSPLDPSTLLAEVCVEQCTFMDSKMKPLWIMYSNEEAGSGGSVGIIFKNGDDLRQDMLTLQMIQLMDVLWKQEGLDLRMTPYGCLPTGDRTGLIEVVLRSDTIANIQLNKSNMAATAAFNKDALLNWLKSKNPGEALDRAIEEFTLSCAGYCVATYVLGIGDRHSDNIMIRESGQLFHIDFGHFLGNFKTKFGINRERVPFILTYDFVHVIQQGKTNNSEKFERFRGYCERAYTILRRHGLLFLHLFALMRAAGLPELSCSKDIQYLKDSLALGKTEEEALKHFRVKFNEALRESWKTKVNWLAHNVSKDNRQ

[12] = target: Serine/threonine-protein kinase mTOR (Homo sapiens, UniProt P42345); assay: Inhibition of m-TOR (unknown origin)

T2 sequence (P42338 whole entry, canonical isoform): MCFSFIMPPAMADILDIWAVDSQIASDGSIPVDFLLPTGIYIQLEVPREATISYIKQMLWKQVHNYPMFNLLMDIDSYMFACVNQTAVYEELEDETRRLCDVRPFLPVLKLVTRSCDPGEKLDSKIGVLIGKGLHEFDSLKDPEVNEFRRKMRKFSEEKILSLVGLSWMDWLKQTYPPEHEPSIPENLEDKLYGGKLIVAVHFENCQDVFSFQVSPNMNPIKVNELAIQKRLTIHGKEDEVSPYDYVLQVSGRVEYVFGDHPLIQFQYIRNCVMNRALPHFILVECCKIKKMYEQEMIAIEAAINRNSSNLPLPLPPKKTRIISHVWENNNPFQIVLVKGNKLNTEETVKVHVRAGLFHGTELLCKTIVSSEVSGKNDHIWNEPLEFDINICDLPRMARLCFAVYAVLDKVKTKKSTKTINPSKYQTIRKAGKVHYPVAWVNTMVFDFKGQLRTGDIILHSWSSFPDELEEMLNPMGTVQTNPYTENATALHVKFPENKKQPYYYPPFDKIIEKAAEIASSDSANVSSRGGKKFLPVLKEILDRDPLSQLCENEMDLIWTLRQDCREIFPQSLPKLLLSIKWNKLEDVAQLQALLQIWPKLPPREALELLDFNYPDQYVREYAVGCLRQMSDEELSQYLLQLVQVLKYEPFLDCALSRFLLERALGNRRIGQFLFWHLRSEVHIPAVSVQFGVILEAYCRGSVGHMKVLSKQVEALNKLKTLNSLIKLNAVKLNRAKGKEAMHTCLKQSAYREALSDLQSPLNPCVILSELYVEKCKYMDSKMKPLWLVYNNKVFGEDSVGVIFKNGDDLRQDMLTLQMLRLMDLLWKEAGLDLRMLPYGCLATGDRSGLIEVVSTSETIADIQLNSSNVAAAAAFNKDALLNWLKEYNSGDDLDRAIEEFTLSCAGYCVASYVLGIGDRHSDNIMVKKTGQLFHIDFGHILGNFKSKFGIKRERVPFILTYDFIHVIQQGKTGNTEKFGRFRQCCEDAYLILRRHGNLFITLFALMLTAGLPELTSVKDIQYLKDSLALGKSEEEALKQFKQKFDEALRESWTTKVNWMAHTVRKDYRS
Sequence of Vascular endothelial growth factor receptor 2 (P35968 whole entry, canonical isoform): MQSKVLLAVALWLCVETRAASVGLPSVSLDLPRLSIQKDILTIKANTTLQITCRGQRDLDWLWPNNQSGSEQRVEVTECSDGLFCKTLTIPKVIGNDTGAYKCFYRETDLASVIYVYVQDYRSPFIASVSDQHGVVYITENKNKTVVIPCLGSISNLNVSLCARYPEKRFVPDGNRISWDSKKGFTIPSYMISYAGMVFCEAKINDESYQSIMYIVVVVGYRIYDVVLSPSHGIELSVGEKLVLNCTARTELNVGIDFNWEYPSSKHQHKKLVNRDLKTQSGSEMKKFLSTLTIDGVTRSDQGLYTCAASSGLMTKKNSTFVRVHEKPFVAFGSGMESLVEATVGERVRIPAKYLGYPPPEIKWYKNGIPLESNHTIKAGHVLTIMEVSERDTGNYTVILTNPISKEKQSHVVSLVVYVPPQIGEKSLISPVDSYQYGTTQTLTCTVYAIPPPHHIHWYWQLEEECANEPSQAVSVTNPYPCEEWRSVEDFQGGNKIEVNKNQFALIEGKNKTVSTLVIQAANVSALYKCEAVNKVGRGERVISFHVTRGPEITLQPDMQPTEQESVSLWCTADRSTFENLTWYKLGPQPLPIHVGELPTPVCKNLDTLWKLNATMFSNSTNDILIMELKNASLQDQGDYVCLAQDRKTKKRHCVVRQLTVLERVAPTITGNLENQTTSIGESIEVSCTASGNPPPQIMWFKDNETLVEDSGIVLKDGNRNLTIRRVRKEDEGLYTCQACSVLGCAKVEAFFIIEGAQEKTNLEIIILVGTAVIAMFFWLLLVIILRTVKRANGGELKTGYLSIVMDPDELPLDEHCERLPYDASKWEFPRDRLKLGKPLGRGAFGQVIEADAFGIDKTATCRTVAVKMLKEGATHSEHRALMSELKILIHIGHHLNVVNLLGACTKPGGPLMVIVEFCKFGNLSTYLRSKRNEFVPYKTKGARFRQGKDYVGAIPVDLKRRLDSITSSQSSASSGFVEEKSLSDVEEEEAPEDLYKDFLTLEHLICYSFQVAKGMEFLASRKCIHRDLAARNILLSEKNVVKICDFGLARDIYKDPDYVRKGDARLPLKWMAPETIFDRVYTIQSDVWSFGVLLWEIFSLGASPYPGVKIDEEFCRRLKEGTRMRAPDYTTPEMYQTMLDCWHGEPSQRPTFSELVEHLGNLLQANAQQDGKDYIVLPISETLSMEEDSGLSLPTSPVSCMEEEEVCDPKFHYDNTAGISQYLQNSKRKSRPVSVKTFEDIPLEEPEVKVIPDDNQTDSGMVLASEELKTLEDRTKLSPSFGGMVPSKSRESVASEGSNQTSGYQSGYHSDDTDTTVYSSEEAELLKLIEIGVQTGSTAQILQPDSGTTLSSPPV
T1 sequence (P42336 whole entry, canonical isoform): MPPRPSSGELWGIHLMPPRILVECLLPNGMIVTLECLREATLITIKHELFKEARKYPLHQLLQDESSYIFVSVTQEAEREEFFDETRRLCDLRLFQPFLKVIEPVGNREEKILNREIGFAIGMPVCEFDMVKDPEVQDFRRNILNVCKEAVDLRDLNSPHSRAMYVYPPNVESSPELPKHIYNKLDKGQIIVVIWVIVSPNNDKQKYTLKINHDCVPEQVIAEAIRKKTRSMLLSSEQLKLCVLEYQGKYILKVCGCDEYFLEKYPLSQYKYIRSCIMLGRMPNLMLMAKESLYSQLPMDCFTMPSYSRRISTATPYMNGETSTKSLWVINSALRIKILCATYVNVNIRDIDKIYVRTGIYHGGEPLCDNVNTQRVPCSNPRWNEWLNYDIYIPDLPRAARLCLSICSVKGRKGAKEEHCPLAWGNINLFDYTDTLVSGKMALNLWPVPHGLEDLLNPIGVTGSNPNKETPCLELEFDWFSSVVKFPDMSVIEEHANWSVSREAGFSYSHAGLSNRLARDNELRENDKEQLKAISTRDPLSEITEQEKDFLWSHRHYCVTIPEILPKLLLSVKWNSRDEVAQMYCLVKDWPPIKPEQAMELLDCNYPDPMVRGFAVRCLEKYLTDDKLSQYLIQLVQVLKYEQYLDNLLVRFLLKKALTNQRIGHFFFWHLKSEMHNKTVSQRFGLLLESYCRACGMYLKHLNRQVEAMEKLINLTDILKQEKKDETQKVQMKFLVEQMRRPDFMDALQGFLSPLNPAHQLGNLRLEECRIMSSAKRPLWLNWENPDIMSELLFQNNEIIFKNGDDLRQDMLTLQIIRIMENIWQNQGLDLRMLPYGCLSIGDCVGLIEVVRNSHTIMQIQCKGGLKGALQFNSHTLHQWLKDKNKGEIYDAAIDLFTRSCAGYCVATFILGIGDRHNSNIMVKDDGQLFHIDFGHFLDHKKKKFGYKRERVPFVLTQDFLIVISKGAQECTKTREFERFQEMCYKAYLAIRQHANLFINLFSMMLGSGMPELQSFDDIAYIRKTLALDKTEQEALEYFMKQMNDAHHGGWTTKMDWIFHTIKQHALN
Sequence of Phosphatidylinositol 4,5-bisphosphate 3-kinase catalytic subunit gamma isoform (P48736 whole entry, canonical isoform): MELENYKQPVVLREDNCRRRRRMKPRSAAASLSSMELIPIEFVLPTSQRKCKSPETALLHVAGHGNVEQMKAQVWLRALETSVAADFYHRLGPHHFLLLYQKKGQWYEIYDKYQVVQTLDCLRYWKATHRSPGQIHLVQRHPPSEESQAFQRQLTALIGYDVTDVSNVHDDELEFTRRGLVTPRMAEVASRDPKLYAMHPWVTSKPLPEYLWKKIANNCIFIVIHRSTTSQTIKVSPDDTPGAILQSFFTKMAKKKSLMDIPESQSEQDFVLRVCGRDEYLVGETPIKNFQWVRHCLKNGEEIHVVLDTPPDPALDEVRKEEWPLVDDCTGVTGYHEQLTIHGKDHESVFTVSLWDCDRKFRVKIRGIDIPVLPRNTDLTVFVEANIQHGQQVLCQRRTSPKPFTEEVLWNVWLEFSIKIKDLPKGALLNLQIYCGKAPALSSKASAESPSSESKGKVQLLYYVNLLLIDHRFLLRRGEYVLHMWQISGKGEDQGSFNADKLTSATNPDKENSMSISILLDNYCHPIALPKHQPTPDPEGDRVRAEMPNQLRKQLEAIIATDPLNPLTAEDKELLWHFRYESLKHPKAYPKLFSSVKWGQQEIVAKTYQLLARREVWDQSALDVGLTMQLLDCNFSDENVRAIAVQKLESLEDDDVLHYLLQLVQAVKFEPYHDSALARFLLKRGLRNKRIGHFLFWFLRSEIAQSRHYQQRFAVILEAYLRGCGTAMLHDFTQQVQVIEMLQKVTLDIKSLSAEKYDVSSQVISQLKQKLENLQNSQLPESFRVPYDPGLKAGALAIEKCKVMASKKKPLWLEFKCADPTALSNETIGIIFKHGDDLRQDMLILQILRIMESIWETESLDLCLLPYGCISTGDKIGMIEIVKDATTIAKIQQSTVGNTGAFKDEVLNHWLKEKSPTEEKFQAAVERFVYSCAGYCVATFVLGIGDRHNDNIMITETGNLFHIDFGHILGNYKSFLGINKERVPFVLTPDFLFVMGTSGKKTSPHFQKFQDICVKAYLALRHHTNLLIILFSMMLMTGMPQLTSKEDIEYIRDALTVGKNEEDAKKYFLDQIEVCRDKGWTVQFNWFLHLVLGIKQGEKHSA
Sequence of Glycogen synthase kinase-3 beta (Homo sapiens) (P49841 whole entry, looked up, canonical isoform): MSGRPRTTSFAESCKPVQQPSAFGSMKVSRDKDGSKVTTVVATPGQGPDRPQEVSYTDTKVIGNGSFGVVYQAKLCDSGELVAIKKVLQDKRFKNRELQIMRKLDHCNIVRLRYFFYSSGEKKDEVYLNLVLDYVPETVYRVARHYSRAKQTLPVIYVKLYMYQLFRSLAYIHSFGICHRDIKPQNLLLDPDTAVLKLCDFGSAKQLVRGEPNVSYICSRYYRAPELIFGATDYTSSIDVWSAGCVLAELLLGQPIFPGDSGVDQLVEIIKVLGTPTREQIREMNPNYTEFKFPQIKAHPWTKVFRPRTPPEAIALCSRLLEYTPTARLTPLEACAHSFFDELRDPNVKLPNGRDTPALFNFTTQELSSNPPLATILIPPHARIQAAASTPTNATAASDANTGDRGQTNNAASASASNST

SMILES	IC50 [1]	IC50 [2]	IC50 [3]	IC50 [4]	IC50 [5]	logD at 0.5 h [6]	inhibition [7]	inhibition [8]	inhibition [9]	IC50 [10]	IC50 [11]	IC50 [12]
CN(C)CC(=O)N1CCC(c2nc(-c3cnc(N)c(-n4nnc5ccccc54)n3)n(C)n2)CC1	29 nM	1000 nM	9000 nM	270 nM	6900 nM	0.9	60%	60%	60%	650 nM	17 nM	21000 nM
CN(C)CC(=O)N1CCC(n2ccc(-c3cnc(N)c(-n4nnc5ccccc54)n3)n2)CC1	27 nM	1700 nM	170 nM	250 nM	10000 nM	1.8	–	–	–	–	–	–
CN(C)CC(=O)N1CCC(c2cn(C)c(-c3cnc(N)c(-n4nnc5ccccc54)n3)n2)CC1	64 nM	1300 nM	6600 nM	690 nM	7900 nM	1.3	–	–	–	–	–	–
CN(C)CC(=O)N1CCC(c2nc(-c3cnc(N)c(-n4nnc5ccccc54)n3)nn2C)CC1	280 nM	2400 nM	1200 nM	3900 nM	12000 nM	1	–	–	–	–	–	–

The next molecules have a lower IC50 [1] than those just listed; values first:

IC50 [1]	IC50 [2]	IC50 [3]	IC50 [4]	IC50 [5]	logD at 0.5 h [6]	inhibition [7]	inhibition [8]	inhibition [9]	IC50 [10]	IC50 [11]	IC50 [12]	SMILES
6 nM	380 nM	90 nM	91 nM	4300 nM	1.8	–	–	–	–	–	–	CN(C)CC(=O)N1CCC(c2cc(-c3cnc(N)c(-n4nnc5ccccc54)n3)n(C)n2)CC1
16 nM	900 nM	29 nM	58 nM	13000 nM	1.7	–	–	–	280 nM	20 nM	15000 nM	CN(C)CC(=O)N1CCC(n2cc(-c3cnc(N)c(-n4nnc5ccccc54)n3)cn2)CC1
21 nM	650 nM	210 nM	140 nM	7800 nM	1.9	–	–	–	–	–	–	CN(C)CC(=O)N1CCC(n2ncc(-c3cnc(N)c(-n4nnc5ccccc54)n3)n2)CC1
